Reference: the supplement of paper PMC10307832

Legend:
Experiment in all cases: relative viability (nuclei count vs DMSO), 5 days (fraction); higher = more cells survive
COR-L 105 = test system: COR-L 105
How it was run: (§1)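 Medians of duplicate plates are given as relative viability. That measure is the nuclei count in treated wells divided by the count in vehicle wells. Counts were taken on 4× images of lung cancer cell lines in 1536-well plates, 5 days after pin-tool dosing the day after seeding with one drug alone or a fixed anchor-drug dose plus five library-drug doses (not always all listed) in √10 steps.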

NCI-H441 = test system: NCI-H441
How it was run: as §1

H3255 = test system: H3255
How it was run: as §1

NCI-H1792 = test system: NCI-H1792
How it was run: as §1

NCI-H2085 = test system: NCI-H2085
How it was run: as §1

NCI-H2009 = test system: NCI-H2009
How it was run: as §1

CAL-12T = test system: CAL-12T
How it was run: as §1

HCC-827 = test system: HCC-827
How it was run: as §1

NCI-H460 = test system: NCI-H460
How it was run: as §1

NCI-H1355 = test system: NCI-H1355
How it was run: as §1

Q: What does the source list for CCNC(=O)c1noc(-c2cc(C(C)C)c(O)cc2O)c1-c1ccc(CN2CCOCC2)cc1 [Luminespib] + C[C@]1(O)C[C@@H](c2nc(-c3ccc4ccc(-c5ccccc5)nc4c3)c3c(N)nccn32)C1 [Linsitinib] (partner 1 µM)?
A: relative viability (COR-L 105; first compound 0.002 µM): 0.843; relative viability (COR-L 105; first compound 0.006325 µM): 0.811; relative viability (COR-L 105; first compound 0.02 µM): 0.991; relative viability (COR-L 105; first compound 0.06325 µM): 0.245; relative viability (COR-L 105; first compound 0.2 µM): 0.207; relative viability (NCI-H441; first compound 0.002 µM): 0.797; relative viability (NCI-H441; first compound 0.006325 µM): 0.5; relative viability (NCI-H441; first compound 0.02 µM): 0.485; relative viability (NCI-H441; first compound 0.06325 µM): 0.108; relative viability (NCI-H441; first compound 0.2 µM): 0.0934; relative viability (H3255; first compound 0.002 µM): 0.929; relative viability (H3255; first compound 0.006325 µM): 0.868; relative viability (H3255; first compound 0.02 µM): 0.65; relative viability (H3255; first compound 0.06325 µM): 0.885; relative viability (H3255; first compound 0.2 µM): 0.228; relative viability (NCI-H1792; first compound 0.002 µM): 0.444; relative viability (NCI-H1792; first compound 0.006325 µM): 0.469; relative viability (NCI-H1792; first compound 0.02 µM): 0.212; relative viability (NCI-H1792; first compound 0.06325 µM): 0.297; relative viability (NCI-H1792; first compound 0.2 µM): 0.106; relative viability (NCI-H2085; first compound 0.002 µM): 0.405; relative viability (NCI-H2085; first compound 0.006325 µM): 0.76; relative viability (NCI-H2085; first compound 0.02 µM): 0.826; relative viability (NCI-H2085; first compound 0.06325 µM): 0.442; relative viability (NCI-H2085; first compound 0.2 µM): 0.241; relative viability (NCI-H2009; first compound 0.002 µM): 1.21; relative viability (NCI-H2009; first compound 0.006325 µM): 1.2; relative viability (NCI-H2009; first compound 0.02 µM): 1.21; relative viability (NCI-H2009; first compound 0.06325 µM): 1.13; relative viability (NCI-H2009; first compound 0.2 µM): 0.0697; relative viability (CAL-12T; first compound 0.002 µM): 0.761; relative viability (CAL-12T; first compound 0.006325 µM): 0.787; relative viability (CAL-12T; first compound 0.02 µM): 0.72; relative viability (CAL-12T; first compound 0.06325 µM): 0.128; relative viability (CAL-12T; first compound 0.2 µM): 0.115; relative viability (HCC-827; first compound 0.002 µM): 0.922; relative viability (HCC-827; first compound 0.006325 µM): 0.925; relative viability (HCC-827; first compound 0.02 µM): 0.937; relative viability (HCC-827; first compound 0.06325 µM): 0.974; relative viability (HCC-827; first compound 0.2 µM): 1.02; relative viability (NCI-H460; first compound 0.002 µM): 0.862; relative viability (NCI-H460; first compound 0.006325 µM): 0.64; relative viability (NCI-H460; first compound 0.02 µM): 0.0374; relative viability (NCI-H460; first compound 0.06325 µM): 0.0101; relative viability (NCI-H460; first compound 0.2 µM): 0.0074; relative viability (NCI-H1355; first compound 0.002 µM): 0.903; relative viability (NCI-H1355; first compound 0.006325 µM): 0.785; relative viability (NCI-H1355; first compound 0.02 µM): 0.425; relative viability (NCI-H1355; first compound 0.06325 µM): 0.763; relative viability (NCI-H1355; first compound 0.2 µM): 0.81
